Legend:
[1] = Antiinflammatory activity in human neutrophils assessed as FMLP/cytochalasin B-induced elastase release after 5 mins by spectrophotometry; assay type: functional, cell-based; settings: Neutrophil
[2] = Cytotoxicity against human Huh7.5 cells; assay type: cell-based; settings: Huh-7
Hepatitis C virus = assay: Antiviral activity against HCV infected in human Huh7.5 cells; assay type: functional, organism-based, Hepacivirus hominis; settings: Huh-7
[3] = Antiinflammatory activity in human neutrophils assessed as FMLP/cytochalasin B-induced superoxide anion generation after 5 mins by spectrophotometry; assay type: functional, cell-based; settings: Neutrophil

IC50 [1]	EC50 (Hepatitis C virus)	IC50 [3]	Compound	IC50 [2]
9.6 µM	23.6 µM	> 30 µM	COc1cc2c3c(ccc2cc1C)C(C)(C)C(O)CC3 (racemic)	64.8 µM
2 µM	–	3.2 µM	CNC(=O)c1cc(Oc2ccc(NC(=O)Nc3ccc(Cl)c(C(F)(F)F)c3)cc2)ccn1 [SORAFENIB]	–
4.3 µM	13 µM	4.4 µM	Cc1cc2ccc3c(c2cc1O)CCC(=O)C3(C)C	26.9 µM
–	9.4 µM	–	C=CCc1ccc(O)c(-c2ccc(O)c(CC=C)c2)c1 [HONOKIOL]	58.5 µM
